{"source": "patent US5786460A", "about": "(Cheil Foods & Chemicals, Inc., priority 1993, dated 1998)", "assay_in_all_cases": "in vitro antifungal activity, twofold agar dilution method", "type_in_all_cases": "cell-based", "key": {"Saccharomyces cerevisiae": {"system": "Saccharomyces cerevisiae", "settings": "KCTC1213, KCTC No 1213, potato dextrose agar", "description": "(§1) The activities were determined by the twofold agar dilution method on potato dextrose agar medium."}, "Microsporum canis": {"system": "Microsporum canis", "settings": "KCTC11621, KCTC No 11621, potato dextrose agar", "description": "as §1"}, "[1]": {"system": "Trichophyton mentagrophyte", "settings": "KCTC6085, KCTC No 6085, potato dextrose agar", "description": "as §1"}, "Aspergillus niger": {"system": "Aspergillus niger", "settings": "KCTC2119, KCTC No 2119, potato dextrose agar", "description": "as §1"}, "Candida glabrata": {"system": "Candida glabrata", "settings": "Nakaseomyces glabratus, KCTC1714; KCTC No 1714; potato dextrose agar", "description": "as §1"}, "Rhizopus stolonifer": {"system": "Rhizopus stolonifer", "settings": "KCTC6062, KCTC No 6062, potato dextrose agar", "description": "as §1"}, "Epidennophyton floccosum": {"system": "Epidennophyton floccosum", "description": "as §1"}, "Trichophyton rubrum": {"system": "Trichophyton rubrum", "settings": "KCTC38484, KCTC No 38484, potato dextrose agar", "description": "as §1"}, "Microsporum gypseum": {"system": "Microsporum gypseum", "settings": "Nannizzia gypsea, KCTC1252; KCTC No 1252; potato dextrose agar", "description": "as §1"}, "Candida albicans [2]": {"system": "Candida albicans", "settings": "KCTC38245", "description": "as §1"}, "Cryptococcus neoformans": {"system": "Cryptococcus neoformans", "settings": "KCTC1197, KCTC No 1197, potato dextrose agar", "description": "as §1"}, "Candida albicans [3]": {"system": "Candida albicans", "settings": "KCTC1940, KCTC No 1940, potato dextrose agar", "description": "as §1"}, "Fusarium oxysporum": {"system": "Fusarium oxysporum", "settings": "KCTC6084, KCTC No 6084, potato dextrose agar", "description": "as §1"}}, "data": [{"smiles": "C[C@@H]1[C@H](O)[C@@H](C)/C=C/C=C/C=C/C=C/C=C/C=C/C=C/[C@H](O[C@@H]2O[C@H](C)[C@@H](O)[C@H](N)[C@@H]2O)C[C@@H]2O[C@](O)(C[C@@H](O)C[C@@H](O)[C@H](O)CC[C@@H](O)C[C@@H](O)CC(=O)O[C@H]1C)C[C@H](O)[C@H]2C(=O)O", "note": "[Amphotericin-B]", "values": [{"measurement": "MIC", "setting": "Saccharomyces cerevisiae", "result": 0.098, "unit": "µg/mL"}, {"measurement": "MIC", "setting": "Microsporum canis", "result": 0.391, "unit": "µg/mL"}, {"measurement": "MIC", "setting": "[1]", "result": 3.12, "unit": "µg/mL"}, {"measurement": "MIC", "setting": "Aspergillus niger", "result": 0.196, "unit": "µg/mL"}, {"measurement": "MIC", "setting": "Candida glabrata", "result": 0.196, "unit": "µg/mL"}, {"measurement": "MIC", "setting": "Rhizopus stolonifer", "result": 0.391, "unit": "µg/mL"}, {"measurement": "MIC", "setting": "Epidennophyton floccosum", "result": 3.12, "unit": "µg/mL"}, {"measurement": "MIC", "setting": "Trichophyton rubrum", "result": 0.782, "unit": "µg/mL"}, {"measurement": "MIC", "setting": "Microsporum gypseum", "result": 0.196, "unit": "µg/mL"}, {"measurement": "MIC", "setting": "Candida albicans [2]", "result": 0.782, "unit": "µg/mL"}, {"measurement": "MIC", "setting": "Cryptococcus neoformans", "result": 0.098, "unit": "µg/mL"}, {"measurement": "MIC", "setting": "Candida albicans [3]", "result": 0.782, "unit": "µg/mL"}, {"measurement": "MIC", "setting": "Fusarium oxysporum", "result": 0.196, "unit": "µg/mL"}]}]}
